Measured values as given in the supplement of paper PMC11451515.

Tests used:
Conditions in all cases: 48 h
NOMO1 = assay: AUC of viability dose-response curve (% viability x log10 dose units); higher = less sensitive
How it was run: (§1)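 Viability of medium-adapted leukemia cells was measured by CellTiter-Glo One luminescence after 48 h at 37°C with library compounds in DMSO. Doses were 11 threefold steps from 47 μM to 0.79 nM, in 1536-well plates at 500 or 1000 cells/well. Signals were normalised per plate to DMSO and cell-free wells and fitted with a four-parameter log-logistic model on log10 dose. Area under the curve was integrated by trapezoidal rule, with curves exceeding full viability scaled and failed quality-control curves removed.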

P12-Ichikawa [1] = assay: as above
How it was run: as §1

SEM cells [2] = assay: as above
How it was run: as §1

SEM cells [3] = assay: cell viability relative to DMSO control; higher = less cytotoxic
How it was run: (§2)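 Viability, reported as a per-plate percentage of DMSO wells with cell-free wells as background, came from CellTiter-Glo One luminescence. Reading took place after 48 h at 37°C. Before that, NOMO1 or SEM (500 cells/well) or P12-Ichikawa (1000 cells/well) leukemia cells, adapted for at least four passages in each medium, were seeded in 1536-well plates (5 μl) and pin-dosed with library compounds in DMSO, 47 μM to 0.79 nM over 11 threefold points.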

P12-Ichikawa [4] = assay: as above
How it was run: as §2

OC[C@H]1O[C@@H](O[C@@H]2O\C=C(/[C@H]3C\C=C(CO)/[C@@H]23)C(O)=O)[C@H](O)[C@@H](O)[C@@H]1O
AUC of viability dose-response curve
Conditions	NOMO1	P12-Ichikawa [1]	SEM cells [2]
HPLM + 10% dialyzed FBS	453	449	452
RPMI 5 mM glucose + 10% FBS	449	468	475
RPMI 5 mM glucose + 10% dialyzed FBS	455	418	462

CNC(=O)c1c(-c2ccc(F)cc2)oc2cc(N(CCO)[S+](C)(=O)[O-])c(C3CC3)cc12
cell viability [%], SEM cells [3]
Conditions	HPLM + 10% dialyzed FBS	RPMI 5 mM glucose + 10% FBS	RPMI 5 mM glucose + 10% dialyzed FBS
0.000781 µM	82.4	44.5	75.4
0.00234 µM	117	71.1	111
0.00702 µM	117	77.3	118
0.0211 µM	110	69.1	106
0.0632 µM	71.9	41.9	65.2
0.19 µM	51.8	26.8	46.8
0.569 µM	67.2	39.9	59.4
1.71 µM	51.2	31.5	48
5.12 µM	25.4	23.8	24.4
15.4 µM	14.3	5.58	10.2
46.1 µM	3.38	1.22	1

AUC of viability dose-response curve
Conditions	HPLM + 10% dialyzed FBS	RPMI 5 mM glucose + 10% FBS	RPMI 5 mM glucose + 10% dialyzed FBS
NOMO1	395	412	425
P12-Ichikawa [1]	382	407	404

COCCOc1ccc2c(c1)ncn2-c1ccc2cccc(N3CCC(N)CC3)c2n1
cell viability [%], SEM cells [3]
Conditions	HPLM + 10% dialyzed FBS	RPMI 5 mM glucose + 10% FBS	RPMI 5 mM glucose + 10% dialyzed FBS
0.000781 µM	83.8	99.7	112
0.00234 µM	77.9	115	101
0.00702 µM	70.3	109	72.2
0.0211 µM	59.8	67.6	65.2
0.0632 µM	52.5	58.7	51.3
0.19 µM	51.6	47.8	46.1
0.569 µM	46.6	50.9	44.6
1.71 µM	42.5	44.1	41.8
5.12 µM	21.7	25.8	23.7
15.4 µM	12.8	12.3	13.1
46.1 µM	4.13	3.44	3.97

AUC of viability dose-response curve
Conditions	HPLM + 10% dialyzed FBS	RPMI 5 mM glucose + 10% FBS	RPMI 5 mM glucose + 10% dialyzed FBS
NOMO1	394	418	405
P12-Ichikawa [1]	377	405	394

ClC1=C[NH]N=C1C\2NC(=N\C3=C2C(=O)CCC3)/NC4=NC5=CC=CC=C5O4 (stereo not drawn)
AUC of viability dose-response curve
Conditions	NOMO1	P12-Ichikawa [1]	SEM cells [2]
HPLM + 10% dialyzed FBS	457	464	460
RPMI 5 mM glucose + 10% FBS	463	453	452
RPMI 5 mM glucose + 10% dialyzed FBS	465	455	441

C[C@H](CCC(=O)O)[C@H]1CC[C@H]2[C@@H]3[C@@H](O)C[C@@H]4C[C@H](O)CC[C@]4(C)[C@H]3CC[C@]12C
AUC of viability dose-response curve
Conditions	NOMO1	P12-Ichikawa [1]	SEM cells [2]
HPLM + 10% dialyzed FBS	401	445	441
RPMI 5 mM glucose + 10% FBS	414	461	462
RPMI 5 mM glucose + 10% dialyzed FBS	398	435	449

C[S+](=O)([O-])c1cc(F)cc2c3c(n(Cc4ccc(Cl)cc4)c12)[C@@H](CC(=O)O)CC3
AUC of viability dose-response curve
Conditions	HPLM + 10% dialyzed FBS	RPMI 5 mM glucose + 10% FBS	RPMI 5 mM glucose + 10% dialyzed FBS
P12-Ichikawa [1]	466	451	467
SEM cells [2]	477	468	461

CCCc1cc(C(N)=S)ccn1
SEM cells [3], HPLM + 10% dialyzed FBS
Conditions	cell viability [%]
0.000781 µM	92.5
0.00234 µM	110
0.00702 µM	111
0.0211 µM	113
0.0632 µM	114
0.19 µM	117
0.569 µM	85.6
1.71 µM	56.3
5.12 µM	119
15.4 µM	130
46.1 µM	133

AUC of viability dose-response curve
Conditions	NOMO1	P12-Ichikawa [1]	SEM cells [2]
HPLM + 10% dialyzed FBS	470	466	446
RPMI 5 mM glucose + 10% FBS	472	436	469
RPMI 5 mM glucose + 10% dialyzed FBS	465	472	475

O=C(/C=C\n1cnc(-c2cc(C(F)(F)F)cc(C(F)(F)F)c2)n1)NNc1cnccn1
AUC of viability dose-response curve
Conditions	HPLM + 10% dialyzed FBS	RPMI 5 mM glucose + 10% FBS	RPMI 5 mM glucose + 10% dialyzed FBS
P12-Ichikawa [1]	302	296	295
SEM cells [2]	310	301	309

OC(=O)C/1=C/C(=O)NC(=O)N1
AUC of viability dose-response curve
Conditions	NOMO1	P12-Ichikawa [1]	SEM cells [2]
HPLM + 10% dialyzed FBS	424	455	466
RPMI 5 mM glucose + 10% FBS	450	457	457
RPMI 5 mM glucose + 10% dialyzed FBS	437	456	458

FC1=C(C=C(C\C2=N\NC(=O)C3=C2C=CC=C3)C=C1)C(=O)N4CCN(CC4)C(=O)C5CC5
cell viability [%]
Conditions	HPLM + 10% dialyzed FBS	RPMI 5 mM glucose + 10% FBS	RPMI 5 mM glucose + 10% dialyzed FBS
P12-Ichikawa [4], 0.000781 µM	81.1	81.6	78.9
P12-Ichikawa [4], 0.00234 µM	90.8	84.1	87.3
P12-Ichikawa [4], 0.00702 µM	94	86.7	86.5
P12-Ichikawa [4], 0.0211 µM	96.2	88.2	87.1
P12-Ichikawa [4], 0.0632 µM	99	88.7	91.2
P12-Ichikawa [4], 0.19 µM	87.4	86.5	93.2
P12-Ichikawa [4], 0.569 µM	95.6	86.1	82
P12-Ichikawa [4], 1.71 µM	85.7	82.5	82.1
P12-Ichikawa [4], 5.12 µM	85.5	83.8	78.9
P12-Ichikawa [4], 15.4 µM	88.3	72.1	73
P12-Ichikawa [4], 46.1 µM	49.4	38.9	53.9
SEM cells [3], 0.000781 µM	80.9	94.7	71.6
SEM cells [3], 0.00234 µM	84	95.8	79
SEM cells [3], 0.00702 µM	100	103	92
SEM cells [3], 0.0211 µM	99	109	70.5
SEM cells [3], 0.0632 µM	97	107	77.7
SEM cells [3], 0.19 µM	94.9	105	81.3
SEM cells [3], 0.569 µM	85.7	92.8	74.8
SEM cells [3], 1.71 µM	91.6	87.1	78.2
SEM cells [3], 5.12 µM	86.5	76.3	62.4
SEM cells [3], 15.4 µM	19.7	13.1	17.5
SEM cells [3], 46.1 µM	41.1	26.5	24.8

AUC of viability dose-response curve
Conditions	HPLM + 10% dialyzed FBS	RPMI 5 mM glucose + 10% FBS	RPMI 5 mM glucose + 10% dialyzed FBS
NOMO1	439	400	422
P12-Ichikawa [1]	421	390	393
